Reference: the NIST ThermoML archive (doi:10.1016/j.jct.2011.08.019)
Several values for one entry are separate records, joined by “and”; a condition that tells them apart may be missing. Equal entries are not always repeated. ± gives the expanded uncertainty stated by the source.

Assay: molar heat capacity at constant pressure
Settings: 101.33 kPa, Liquid, Small sample (50 mg) DSC

Row | SMILES | molar heat capacity at constant pressure (343.15 K) | molar heat capacity at constant pressure (348.15 K) | molar heat capacity at constant pressure (353.15 K) | molar heat capacity at constant pressure (358.15 K) | molar heat capacity at constant pressure (363.15 K) | molar heat capacity at constant pressure (368.15 K) | molar heat capacity at constant pressure (373.15 K) | molar heat capacity at constant pressure (378.15 K) | molar heat capacity at constant pressure (383.15 K) | molar heat capacity at constant pressure (388.15 K) | molar heat capacity at constant pressure (393.15 K) | molar heat capacity at constant pressure (398.15 K) | molar heat capacity at constant pressure (403.15 K) | molar heat capacity at constant pressure (408.15 K) | molar heat capacity at constant pressure (413.15 K) | molar heat capacity at constant pressure (418.15 K) | molar heat capacity at constant pressure (423.15 K) | molar heat capacity at constant pressure (428.15 K) | molar heat capacity at constant pressure (433.15 K) | molar heat capacity at constant pressure (438.15 K) | other results
1 | CCn1cc[n+](C)c1.O=S(=O)([N-]S(=O)(=O)C(F)(F)F)C(F)(F)F | 531 ± 54 J/K/mol and 533.4 ± 54 J/K/mol and 533.7 ± 54 J/K/mol | 531.8 ± 54 J/K/mol and 534.1 ± 54 J/K/mol and 534.9 ± 54 J/K/mol | 533 ± 54 J/K/mol and 536.1 ± 54 J/K/mol | 537.3 ± 54 J/K/mol and 537.7 ± 54 J/K/mol and 534.9 ± 54 J/K/mol | 536.1 ± 54 J/K/mol and 538.4 ± 54 J/K/mol and 539.2 ± 54 J/K/mol | 537.7 ± 54 J/K/mol and 539.6 ± 54 J/K/mol and 540.4 ± 55 J/K/mol | 538.8 ± 54 J/K/mol and 541.6 ± 55 J/K/mol and 542.4 ± 55 J/K/mol | 540.8 ± 55 J/K/mol and 542.7 ± 55 J/K/mol and 543.5 ± 55 J/K/mol | 541.6 ± 55 J/K/mol and 543.9 ± 55 J/K/mol | 542.7 ± 55 J/K/mol and 545.1 ± 55 J/K/mol and 545.5 ± 55 J/K/mol | 544.7 ± 55 J/K/mol and 546.7 ± 55 J/K/mol | 545.5 ± 55 J/K/mol and 547.4 ± 55 J/K/mol and 548.2 ± 55 J/K/mol | 547.4 ± 55 J/K/mol and 549.4 ± 56 J/K/mol | 548.6 ± 55 J/K/mol and 550.2 ± 56 J/K/mol and 549.8 ± 56 J/K/mol | 549.4 ± 56 J/K/mol and 552.1 ± 56 J/K/mol and 550.2 ± 56 J/K/mol | 550.6 ± 56 J/K/mol and 552.5 ± 56 J/K/mol and 551.7 ± 56 J/K/mol | 551.4 ± 56 J/K/mol and 552.9 ± 56 J/K/mol and 552.5 ± 56 J/K/mol | 552.1 ± 56 J/K/mol and 553.7 ± 56 J/K/mol and 552.9 ± 56 J/K/mol | 552.5 ± 56 J/K/mol and 554.9 ± 56 J/K/mol and 555.3 ± 56 J/K/mol | 554.1 ± 56 J/K/mol and 556.1 ± 56 J/K/mol and 555.7 ± 56 J/K/mol | molar heat capacity at constant pressure (443.15 K): 554.9 ± 56 J/K/mol and 556.4 ± 56 J/K/mol and 556.1 ± 56 J/K/mol; molar heat capacity at constant pressure (448.15 K): 555.7 ± 56 J/K/mol and 557.2 ± 56 J/K/mol; molar heat capacity at constant pressure (453.15 K): 556.4 ± 56 J/K/mol and 558.4 ± 56 J/K/mol and 556.8 ± 56 J/K/mol; molar heat capacity at constant pressure (458.15 K): 557.6 ± 56 J/K/mol and 558.4 ± 56 J/K/mol and 558 ± 56 J/K/mol; molar heat capacity at constant pressure (463.15 K): 557.6 ± 56 J/K/mol and 558.8 ± 56 J/K/mol
2 | CCCCCCCCCCCCCC[P+](CCCCCC)(CCCCCC)CCCCCC.O=S(=O)([N-]S(=O)(=O)C(F)(F)F)C(F)(F)F | 1381.3 ± 140 J/K/mol [middle of 4 runs] | 1390.5 ± 140 J/K/mol [middle of 4 runs] | 1400.4 ± 140 J/K/mol [middle of 4 runs] | 1410.4 ± 140 J/K/mol and 1399.7 ± 140 J/K/mol and 1395.1 ± 140 J/K/mol | 1419.5 ± 140 J/K/mol [middle of 4 runs] | 1428.7 ± 140 J/K/mol and 1420.3 ± 140 J/K/mol and 1426.4 ± 140 J/K/mol | 1439.4 ± 150 J/K/mol [middle of 4 runs] | 1445.5 ± 150 J/K/mol [middle of 4 runs] | 1454.7 ± 150 J/K/mol [middle of 4 runs] | 1462.3 ± 150 J/K/mol [middle of 4 runs] | 1470 ± 150 J/K/mol [middle of 4 runs] | 1479.9 ± 150 J/K/mol [middle of 4 runs] | 1487.5 ± 150 J/K/mol and 1478.4 ± 150 J/K/mol and 1469.2 ± 150 J/K/mol | 1494.4 ± 150 J/K/mol [middle of 4 runs] | 1501.3 ± 150 J/K/mol [middle of 4 runs] | 1508.9 ± 150 J/K/mol [middle of 4 runs] | 1516.6 ± 150 J/K/mol [middle of 4 runs] | 1521.9 ± 150 J/K/mol [middle of 4 runs] | 1533.4 ± 150 J/K/mol and 1519.6 ± 150 J/K/mol and 1509.7 ± 150 J/K/mol | 1541 ± 160 J/K/mol [middle of 4 runs] | molar heat capacity at constant pressure (328.15 K): 1373.7 ± 140 J/K/mol and 1363 ± 140 J/K/mol and 1359.9 ± 140 J/K/mol; molar heat capacity at constant pressure (333.15 K): 1370.6 ± 140 J/K/mol [middle of 4 runs]; molar heat capacity at constant pressure (338.15 K): 1375.2 ± 140 J/K/mol [middle of 4 runs]; molar heat capacity at constant pressure (443.15 K): 1544.8 ± 160 J/K/mol [middle of 4 runs]; molar heat capacity at constant pressure (448.15 K): 1548.6 ± 160 J/K/mol [middle of 4 runs]; molar heat capacity at constant pressure (453.15 K): 1557.8 ± 160 J/K/mol [middle of 4 runs]; molar heat capacity at constant pressure (458.15 K): 1561.6 ± 160 J/K/mol [middle of 4 runs]; molar heat capacity at constant pressure (463.15 K): 1567.7 ± 160 J/K/mol [middle of 4 runs]
3 | CCCCCCCCCCCCCC[P+](CCCCCC)(CCCCCC)CCCCCC.N#C[N-]C#N [tetradecyl(trihexyl)phosphonium dicyanamide] | 1114.6 ± 110 J/K/mol and 1119.6 ± 110 J/K/mol and 1116.8 ± 110 J/K/mol | 1124.5 ± 110 J/K/mol and 1129.5 ± 110 J/K/mol and 1127.3 ± 110 J/K/mol | 1135 ± 110 J/K/mol and 1140.5 ± 120 J/K/mol and 1137.2 ± 110 J/K/mol | 1145.4 ± 120 J/K/mol and 1150.4 ± 120 J/K/mol and 1147.6 ± 120 J/K/mol | 1155.3 ± 120 J/K/mol and 1160.3 ± 120 J/K/mol | 1164.1 ± 120 J/K/mol and 1169.1 ± 120 J/K/mol and 1165.2 ± 120 J/K/mol | 1172.9 ± 120 J/K/mol and 1177.9 ± 120 J/K/mol and 1173.5 ± 120 J/K/mol | 1180.6 ± 120 J/K/mol and 1186.1 ± 120 J/K/mol and 1190.5 ± 120 J/K/mol | 1188.9 ± 120 J/K/mol and 1194.4 ± 120 J/K/mol and 1194.9 ± 120 J/K/mol | 1197.7 ± 120 J/K/mol and 1203.2 ± 120 J/K/mol and 1204.8 ± 120 J/K/mol | 1205.9 ± 120 J/K/mol and 1212 ± 120 J/K/mol and 1214.2 ± 120 J/K/mol | 1213.6 ± 120 J/K/mol and 1219.7 ± 120 J/K/mol and 1220.2 ± 120 J/K/mol | 1221.3 ± 120 J/K/mol and 1226.8 ± 120 J/K/mol and 1227.9 ± 120 J/K/mol | 1227.4 ± 120 J/K/mol and 1233.4 ± 120 J/K/mol and 1234 ± 120 J/K/mol | 1234.5 ± 120 J/K/mol and 1241.1 ± 130 J/K/mol and 1244.4 ± 130 J/K/mol |  |  |  |  |  | molar heat capacity at constant pressure (313.15 K): 1060.2 ± 110 J/K/mol and 1065.1 ± 110 J/K/mol and 1061.3 ± 110 J/K/mol; molar heat capacity at constant pressure (318.15 K): 1065.7 ± 110 J/K/mol and 1070.6 ± 110 J/K/mol and 1067.3 ± 110 J/K/mol; molar heat capacity at constant pressure (323.15 K): 1075.6 ± 110 J/K/mol and 1080 ± 110 J/K/mol and 1076.1 ± 110 J/K/mol; molar heat capacity at constant pressure (328.15 K): 1089.3 ± 110 J/K/mol and 1086 ± 110 J/K/mol and 1084.4 ± 110 J/K/mol; molar heat capacity at constant pressure (333.15 K): 1094.3 ± 110 J/K/mol and 1099.2 ± 110 J/K/mol and 1095.4 ± 110 J/K/mol; molar heat capacity at constant pressure (338.15 K): 1105.3 ± 110 J/K/mol and 1109.1 ± 110 J/K/mol and 1106.9 ± 110 J/K/mol
